# Reference: article PMC7256108 (Cellular and Molecular Life Sciences: CMLS, 2019)
# “And” between values parts separate entries of the source, which are not always exact repeats. Identical values can stand only once. Like-named read-outs stand apart in the source and are kept apart here.
# Experiments:
# Assay type in all cases: cell-based
# OR2M3 C112A = target: T1, OR2M3 C112A (Homo sapiens, UniProt Q8NG83, C112A); experiment: GloSensor assay, OR2M3 C112A
# T1 construct: 39aa rho-tag; expressed in transfected cells; host or cells: NxG 108CC15 or HEK-293 cells
# T1 sequence (Q8NG83 whole entry C112A): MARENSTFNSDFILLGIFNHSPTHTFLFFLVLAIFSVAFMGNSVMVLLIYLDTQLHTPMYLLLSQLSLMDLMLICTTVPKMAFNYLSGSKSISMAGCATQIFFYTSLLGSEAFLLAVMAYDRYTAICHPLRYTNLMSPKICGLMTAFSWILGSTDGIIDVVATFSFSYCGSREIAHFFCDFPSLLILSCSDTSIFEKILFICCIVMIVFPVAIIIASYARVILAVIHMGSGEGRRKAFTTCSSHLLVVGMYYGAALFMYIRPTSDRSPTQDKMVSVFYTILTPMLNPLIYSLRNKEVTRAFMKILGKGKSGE
# Method: (§1) All receptor variants used were generated by PCR-based site-directed mutagenesis in two steps. Gene-specific primers (mutation primers) were used according to Table S2 and Table S3. The mutation primers, which carried the changed nucleotides, were designed overlapping.
# (§2) The assay was performed as reported above.
# (§3) All data are presented as mean ± SD.
# OR2M3 C202A = target: T2, OR2M3 C202A (Homo sapiens, UniProt Q8NG83, C202A); experiment: GloSensor assay, OR2M3 C202A; details: even in the presence of Cu^2+, agonist 20 µmol/L
# T2 construct: 39aa rho-tag; expressed in transfected cells; host or cells: NxG 108CC15 or HEK-293 cells
# T2 sequence (Q8NG83 whole entry C202A): as the sequence (Q8NG83 whole entry C112A) above, with A112C, C202A counted along it
# Method: as §1, §2, §3
# OR2M3 T105A = target: T3, OR2M3 T105A (Homo sapiens, UniProt Q8NG83, T105A); experiment: GloSensor assay, OR2M3 T105A
# T3 construct: 39aa rho-tag; expressed in transfected cells; host or cells: NxG 108CC15 or HEK-293 cells
# T3 sequence (Q8NG83 whole entry T105A): as the sequence (Q8NG83 whole entry C112A) above, with T105A, A112C counted along it
# Method: as §1, §2, §3
# OR2M3 wt = target: T4, OR2M3 wt (Homo sapiens, UniProt Q8NG83); experiment: cAMP-luminescence GloSensor assay, recombinant OR2M3 wt; details: OR2M3 wt
# T4 construct: full-length gene-specific forward and reverse primers were added; 39aa rho-tag; expressed in transfected cells; host or cells: NxG 108CC15 or HEK-293 cells
# T4 sequence (Q8NG83 1-312): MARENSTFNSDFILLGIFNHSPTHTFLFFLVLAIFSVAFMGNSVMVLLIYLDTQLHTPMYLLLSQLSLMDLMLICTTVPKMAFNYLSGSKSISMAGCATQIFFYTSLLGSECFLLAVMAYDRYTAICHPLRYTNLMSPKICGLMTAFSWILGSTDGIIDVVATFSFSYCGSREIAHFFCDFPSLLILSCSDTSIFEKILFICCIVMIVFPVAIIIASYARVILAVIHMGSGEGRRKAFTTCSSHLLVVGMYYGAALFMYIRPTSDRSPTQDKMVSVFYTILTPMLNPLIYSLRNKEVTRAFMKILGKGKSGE
# Method: as §2, §3
# OR2M3 M206I = target: T5, OR2M3 M206I (Homo sapiens, UniProt Q8NG83, M206I); experiment: GloSensor assay, OR2M3 M206I; details: OR2M3 M206I (SNP haplotype)
# T5 construct: 39aa rho-tag; expressed in transfected cells; host or cells: NxG 108CC15 or HEK-293 cells
# T5 sequence (Q8NG83 whole entry M206I): as the sequence (Q8NG83 whole entry C112A) above, with A112C, M206I counted along it
# Text: as §1, §3
# (§4) (a) Schematic snake diagram with localization of mutated amino acid positions within OR2M3, which have been chosen because of their close vicinity to putative interaction sites with odorants as proposed by Man et al. (red circles). Effects of 3-mercapto-2-methylpentan-1-ol on OR2M3 variants (black curves) with SNP-defined single amino acid changes at positions 104^3.32 (b), 206^5.45 (c), and 207^5.46 (d). Note that the same data set for 3-mercapto-2-methylpentan-1-ol on OR2M3 wt (grey, see also Fig. 1b, d) is given in panels (b)-(d) for didactic reasons. […] RLU = relative luminescence unit. 3MMP = 3-mercapto-2-methylpentan-1-ol.
# OR2M3 C203S = target: T6, OR2M3 C203S (Homo sapiens, UniProt Q8NG83, C203S); experiment: GloSensor assay, OR2M3 C203S; details: 10 µmol/L Cu^2+, read-out: EC50 in the presence of Cu^2+
# T6 construct: 39aa rho-tag; expressed in transfected cells; host or cells: NxG 108CC15 or HEK-293 cells
# T6 sequence (Q8NG83 whole entry C203S): as the sequence (Q8NG83 whole entry C112A) above, with A112C, C203S counted along it
# Method: as §1, §2, §3
# OR2M3 I207L = target: T7, OR2M3 I207L (Homo sapiens, UniProt Q8NG83, I207L); experiment: GloSensor assay, OR2M3 I207L; details: OR2M3 I207L (SNP haplotype)
# T7 construct: full-length gene-specific forward and reverse primers were added; 39aa rho-tag; expressed in transfected cells; host or cells: NxG 108CC15 or HEK-293 cells
# T7 sequence (Q8NG83 whole entry I207L): as the sequence (Q8NG83 whole entry C112A) above, with A112C, I207L counted along it
# Text: as §1, §3, §4
# OR2M3 C203Y = target: T8, OR2M3 C203Y (Homo sapiens, UniProt Q8NG83, C203Y); experiment: GloSensor assay, OR2M3 C203Y; details: in the absence or presence of Cu^2+
# T8 construct: full-length gene-specific forward and reverse primers were added; 39aa rho-tag; expressed in transfected cells; host or cells: NxG 108CC15 or HEK-293 cells
# T8 sequence (Q8NG83 whole entry C203Y): as the sequence (Q8NG83 whole entry C112A) above, with A112C, C203Y counted along it
# Method: as §1, §2, §3
# OR2M3 C112S = target: T9, OR2M3 C112S (Homo sapiens, UniProt Q8NG83, C112S); experiment: GloSensor assay, OR2M3 C112S; details: presence of copper 10 µmol/L, agonist 20 µmol/L
# T9 construct: 39aa rho-tag; expressed in transfected cells; host or cells: NxG 108CC15 or HEK-293 cells
# T9 sequence (Q8NG83 whole entry C112S): as the sequence (Q8NG83 whole entry C112A) above, with A112S counted along it
# Method: as §1, §2, §3
# OR2M3 C241A = target: T10, OR2M3 C241A (Homo sapiens, UniProt Q8NG83, C241A); experiment: GloSensor assay, OR2M3 C241A; details: OR2M3 Cys241 to alanine; in the absence or presence of Cu^2+
# T10 construct: 39aa rho-tag; expressed in transfected cells; host or cells: NxG 108CC15 or HEK-293 cells
# T10 sequence (Q8NG83 whole entry C241A): as the sequence (Q8NG83 whole entry C112A) above, with A112C, C241A counted along it
# Method: as §1, §2, §3
# OR2M3 H244A = target: T11, OR2M3 H244A (Homo sapiens, UniProt Q8NG83, H244A); experiment: GloSensor assay, OR2M3 H244A; details: OR2M3 His244 to alanine; in the absence or presence of Cu^2+
# T11 construct: 39aa rho-tag; expressed in transfected cells; host or cells: NxG 108CC15 or HEK-293 cells
# T11 sequence (Q8NG83 whole entry H244A): as the sequence (Q8NG83 whole entry C112A) above, with A112C, H244A counted along it
# Method: as §1, §2, §3
# OR2M3 C203A = target: T12, OR2M3 C203A (Homo sapiens, UniProt Q8NG83, C203A); experiment: GloSensor assay, OR2M3 C203A; details: even in the presence of Cu^2+, agonist 20 µmol/L
# T12 construct: 39aa rho-tag; expressed in transfected cells; host or cells: NxG 108CC15 or HEK-293 cells
# T12 sequence (Q8NG83 whole entry C203A): as the sequence (Q8NG83 whole entry C112A) above, with A112C, C203A counted along it
# Method: as §1, §2, §3
# OR2M3 Y104C = target: T13, OR2M3 Y104C (Homo sapiens, UniProt Q8NG83, Y104C); experiment: GloSensor assay, OR2M3 Y104C; details: OR2M3 Y104C (SNP haplotype)
# T13 construct: full-length gene-specific forward and reverse primers were added; 39aa rho-tag; expressed in transfected cells; host or cells: NxG 108CC15 or HEK-293 cells
# T13 sequence (Q8NG83 whole entry Y104C): as the sequence (Q8NG83 whole entry C112A) above, with Y104C, A112C counted along it
# Text: as §1, §3, §4
# OR2M3 C202S = target: T14, OR2M3 C202S (Homo sapiens, UniProt Q8NG83, C202S); experiment: GloSensor assay, OR2M3 C202S; details: even in the presence of Cu^2+, agonist 20 µmol/L
# T14 construct: full-length gene-specific forward and reverse primers were added; 39aa rho-tag; expressed in transfected cells; host or cells: NxG 108CC15 or HEK-293 cells
# T14 sequence (Q8NG83 whole entry C202S): as the sequence (Q8NG83 whole entry C112A) above, with A112C, C202S counted along it
# Method: as §1, §2, §3
# [1] = 10 µmol/L Cu^2+, read-out: EC50 in the presence of Cu^2+
# [2] = presence of copper 10 µmol/L, agonist 20 µmol/L
compound,measurement,setting,value
"CCC(S)C(C)CO (stereo not shown) [3-Mercapto-2-methylpentan-1-ol, 3-mercapto-2-methylpentan-1-ol]",EC50,OR2M3 C112A; [1],0.86 ± 0.004 µM
same,agonist function in mutant receptor,OR2M3 C112A; [2],rescued
same,agonist function in mutant receptor,OR2M3 C202A,complete loss-of-function
same,EC50,OR2M3 T105A; [1],0.75 ± 0.27 µM
same,agonist function in mutant receptor,OR2M3 T105A; [2],rescued
same,EC50,"OR2M3 wt; 10 µmol/L Cu^2+, mean ± SD (n = 3–5), read-out: EC50 in the presence of Cu^2+",0.29 ± 0.1 µM
same,Relative amplitude,"OR2M3 wt; 30 µmol/L AgAc, normalized to wt signal without Cu^2+",5.72 ± 0.42
same,EC50,"OR2M3 wt; 30 µmol/L AgAc, read-out: EC50",0.87 ± 0.5 µM
same,Relative amplitude,"OR2M3 wt; 30 µmol/L AgNO3, normalized to wt signal without Cu^2+",6.41 ± 1.17
same,EC50,"OR2M3 wt; 30 µmol/L AgNO3, read-out: EC50",1.49 ± 0.36 µM
same,EC50,"OR2M3 wt; 30 µmol/L CoCl2, read-out: EC50",0.73 ± 0.26 µM
same,EC50,"OR2M3 wt; 30 µmol/L CuCl2 + copper chelator TEPA, read-out: EC50",1.13 ± 0.36 µM
same,EC50,"OR2M3 wt; 30 µmol/L FeCl3, read-out: EC50",1.67 ± 0.34 µM
same,EC50,"OR2M3 wt; 30 µmol/L NiCl2, read-out: EC50",1.09 ± 0.63 µM
same,Relative amplitude,"OR2M3 wt; 30 µmol/L ZnSO4, n.d. = no detectable response up to 60 µmol/L",complete loss-of-function
same,Relative amplitude,"OR2M3 wt; 30 µmol/L colloidal Ag, normalized to wt signal without Cu^2+",3.52 ± 0.69
same,EC50,"OR2M3 wt; 30 µmol/L colloidal Ag, read-out: EC50",0.76 ± 0.35 µM
same,Hill coefficient,OR2M3 wt; absence of copper (n = 4),0.89 ± 0.41
same,Relative amplitude,"OR2M3 wt; copper concentration 60 µmol, normalized to wt signal without Cu^2+",1.42 ± 0.64
same,EC50,"OR2M3 wt; copper concentration 60 µmol, read-out: EC50",1.47 ± 0.12 µM
same,Relative amplitude,"OR2M3 wt; copper concentration 100 µmol, normalized to wt signal without Cu^2+",0.73 ± 0.48
same,EC50,"OR2M3 wt; copper concentration 100 µmol, read-out: EC50",1.95 ± 0.3 µM
same,EC50,"OR2M3 wt; no metal supplementation (w/o), mean ± SD (n = 3–5), read-out: EC50 in the absence of Cu^2+",0.45 ± 0.19 µM
same,EC50,"OR2M3 wt; presence of 30 µmol/L CuCl2, read-out: EC50",0.55 ± 0.01 µM
same,Hill coefficient,OR2M3 wt; presence of copper (10 µmol/L) (n = 4),1.9 and 1.93 ± 0.71 and ~2
same,increase in amplitude,"OR2M3 wt; supplementation with ionic or colloidal silver, 30 µmol/L",three-to-sixfold increase in amplitude
same,Relative amplitude,"OR2M3 wt; w/o metal, normalized to OR2M3 wt signal with 3-mercapto-2-methylpentan-1-ol (20 µmol/L) in the absence of Cu^2+ (reference)",1
same,receptor function (response to agonist),OR2M3 M206I,complete loss-of-function
same,EC50,OR2M3 C203S,3.16 ± 0.01 µM
same,EC50,OR2M3 I207L,1.41 ± 0.04 µM
same,agonist function in mutant receptor,OR2M3 C203Y,complete loss-of-function
same,agonist function in mutant receptor,OR2M3 C112S,rescued
same,agonist function in mutant receptor,OR2M3 C241A,not functional anymore
same,agonist function in mutant receptor,OR2M3 H244A,not functional anymore
same,agonist function in mutant receptor,OR2M3 C203A,complete loss-of-function
same,EC50,OR2M3 Y104C,1.02 ± 0.18 µM
same,agonist function in mutant receptor,OR2M3 C202S,complete loss-of-function
